Measurements as given in the NIST ThermoML archive (doi:10.1007/s10765-019-2573-6).
± gives the expanded uncertainty stated by the source.

Details: Liquid, Vibrating wire viscometry

CCCCOC(=O)CCCCC(=O)OCCCC [dibutyl hexanedioate]
viscosity [mPa·s]
Details | 100 kPa | 1000 kPa | 5000 kPa | 10000 kPa | 15000 kPa | 20000 kPa | 30000 kPa | 40000 kPa
283.15 K | – | – | – | – | 8.961 ± 0.19 | – | 10.62 ± 0.22 | 11.95 ± 0.25
283.16 K | 7.383 ± 0.16 | 7.493 ± 0.16 | – | – | – | 9.508 ± 0.2 | – | –
283.17 K | – | – | 7.896 ± 0.17 | 8.407 ± 0.18 | – | – | – | –
293.14 K | – | 5.566 ± 0.12 | – | – | 6.585 ± 0.14 | – | – | 8.724 ± 0.18
293.15 K | 5.499 ± 0.12 | – | 5.84 ± 0.12 | 6.196 ± 0.13 | – | 6.982 ± 0.15 | 7.808 ± 0.16 | –
303.15 K | 4.237 ± 0.09 | – | 4.49 ± 0.095 | 4.759 ± 0.1 | 5.029 ± 0.11 | 5.323 ± 0.11 | 5.933 ± 0.12 | 6.592 ± 0.14
303.16 K | – | 4.288 ± 0.094 | – | – | – | – | – | –
313.15 K | 3.375 ± 0.072 | 3.411 ± 0.074 | 3.566 ± 0.075 | 3.769 ± 0.08 | 3.979 ± 0.084 | 4.197 ± 0.089 | 4.66 ± 0.098 | 5.153 ± 0.11
323.15 K | – | 2.774 ± 0.06 | 2.9 ± 0.062 | 3.061 ± 0.065 | 3.224 ± 0.068 | 3.393 ± 0.072 | 3.754 ± 0.079 | 4.146 ± 0.088
323.16 K | 2.746 ± 0.058 | – | – | – | – | – | – | –
333.14 K | – | – | – | 2.54 ± 0.054 | – | – | – | –
333.15 K | 2.282 ± 0.049 | 2.304 ± 0.05 | 2.407 ± 0.051 | – | – | 2.814 ± 0.06 | 3.106 ± 0.066 | 3.412 ± 0.072
333.16 K | – | – | – | – | 2.675 ± 0.057 | – | – | –
343.15 K | 1.93 ± 0.041 | 1.95 ± 0.042 | 2.035 ± 0.043 | 2.144 ± 0.046 | 2.257 ± 0.048 | 2.37 ± 0.05 | 2.612 ± 0.055 | 2.859 ± 0.061
353.15 K | 1.655 ± 0.035 | 1.672 ± 0.036 | 1.746 ± 0.037 | 1.839 ± 0.039 | 1.933 ± 0.041 | 2.031 ± 0.043 | 2.23 ± 0.047 | 2.438 ± 0.052
363.15 K | 1.437 ± 0.031 | 1.452 ± 0.031 | – | – | 1.675 ± 0.036 | 1.757 ± 0.038 | 1.93 ± 0.041 | 2.108 ± 0.045
363.16 K | – | – | – | 1.594 ± 0.034 | – | – | – | –
363.17 K | – | – | 1.513 ± 0.032 | – | – | – | – | –

CCOC(=O)CCCCC(=O)OCC [diethyl hexanedioate]
viscosity [mPa·s]
Details | 100 kPa | 1000 kPa | 5000 kPa | 10000 kPa | 15000 kPa | 20000 kPa | 30000 kPa | 40000 kPa
283.15 K | 4.541 ± 0.096 | 4.59 ± 0.097 | 4.792 ± 0.1 | 5.062 ± 0.11 | 5.332 ± 0.11 | 5.622 ± 0.12 | – | 6.887 ± 0.14
283.16 K | – | – | – | – | – | – | 6.223 ± 0.13 | –
293.15 K | 3.486 ± 0.074 | 3.521 ± 0.077 | 3.672 ± 0.078 | 3.868 ± 0.082 | 4.075 ± 0.086 | 4.278 ± 0.09 | 4.722 ± 0.1 | 5.195 ± 0.11
303.15 K | 2.766 ± 0.059 | 2.792 ± 0.06 | 2.912 ± 0.062 | 3.063 ± 0.065 | 3.207 ± 0.068 | 3.361 ± 0.071 | 3.696 ± 0.078 | 4.042 ± 0.085
313.15 K | 2.252 ± 0.048 | – | 2.362 ± 0.05 | 2.478 ± 0.053 | 2.597 ± 0.055 | 2.721 ± 0.058 | 2.978 ± 0.063 | 3.251 ± 0.069
313.16 K | – | 2.272 ± 0.049 | – | – | – | – | – | –
323.15 K | 1.87 ± 0.04 | 1.886 ± 0.041 | 1.961 ± 0.042 | 2.054 ± 0.044 | 2.151 ± 0.046 | 2.248 ± 0.048 | 2.461 ± 0.052 | 2.68 ± 0.057
333.15 K | 1.579 ± 0.034 | 1.592 ± 0.034 | 1.653 ± 0.035 | 1.734 ± 0.037 | 1.814 ± 0.039 | 1.896 ± 0.04 | 2.066 ± 0.044 | 2.249 ± 0.048
343.15 K | 1.354 ± 0.029 | 1.367 ± 0.03 | 1.419 ± 0.03 | 1.487 ± 0.032 | 1.555 ± 0.033 | 1.624 ± 0.035 | 1.765 ± 0.038 | 1.917 ± 0.041
353.14 K | – | 1.187 ± 0.026 | – | – | – | – | – | –
353.15 K | 1.177 ± 0.025 | – | 1.233 ± 0.027 | 1.292 ± 0.028 | 1.351 ± 0.029 | 1.411 ± 0.03 | 1.534 ± 0.033 | 1.662 ± 0.036
363.15 K | 1.032 ± 0.023 | 1.041 ± 0.023 | 1.081 ± 0.024 | 1.133 ± 0.025 | 1.183 ± 0.026 | 1.236 ± 0.027 | 1.343 ± 0.029 | 1.453 ± 0.031

COC(=O)CCCCC(=O)OC [dimethyl 1,6-hexanedioate]
viscosity [mPa·s]
Details | 100 kPa | 1000 kPa | 5000 kPa | 10000 kPa | 15000 kPa | 20000 kPa | 30000 kPa | 40000 kPa
293.15 K | – | – | 3.46 ± 0.073 | 3.623 ± 0.077 | 3.787 ± 0.08 | 3.958 ± 0.084 | 4.333 ± 0.091 | 4.722 ± 0.1
293.17 K | 3.302 ± 0.07 | 3.331 ± 0.071 | – | – | – | – | – | –
303.15 K | – | – | 2.735 ± 0.058 | 2.854 ± 0.06 | – | – | – | –
303.16 K | – | – | – | – | 2.985 ± 0.063 | 3.115 ± 0.066 | 3.384 ± 0.072 | 3.672 ± 0.078
303.17 K | 2.617 ± 0.056 | 2.637 ± 0.057 | – | – | – | – | – | –
313.14 K | – | 2.151 ± 0.046 | – | – | 2.422 ± 0.051 | 2.522 ± 0.053 | 2.727 ± 0.058 | –
313.15 K | 2.129 ± 0.045 | – | 2.227 ± 0.047 | 2.326 ± 0.049 | – | – | – | 2.955 ± 0.063
323.14 K | – | – | – | – | – | – | – | 2.432 ± 0.052
323.15 K | 1.774 ± 0.038 | 1.789 ± 0.039 | 1.85 ± 0.04 | 1.928 ± 0.041 | 2.008 ± 0.043 | 2.089 ± 0.044 | 2.254 ± 0.048 | –
333.14 K | – | – | – | – | – | – | – | 2.046 ± 0.044
333.15 K | 1.503 ± 0.032 | 1.514 ± 0.033 | 1.565 ± 0.034 | 1.629 ± 0.035 | 1.696 ± 0.036 | 1.764 ± 0.038 | 1.903 ± 0.041 | –
343.15 K | 1.293 ± 0.028 | 1.303 ± 0.028 | 1.346 ± 0.029 | 1.401 ± 0.03 | 1.457 ± 0.031 | 1.514 ± 0.032 | 1.63 ± 0.035 | 1.752 ± 0.037
353.15 K | 1.128 ± 0.024 | – | 1.174 ± 0.025 | 1.221 ± 0.026 | 1.269 ± 0.027 | 1.317 ± 0.028 | 1.417 ± 0.03 | 1.52 ± 0.033
353.16 K | – | 1.136 ± 0.025 | – | – | – | – | – | –
363.13 K | – | – | – | – | 1.115 ± 0.024 | 1.157 ± 0.025 | – | –
363.15 K | 0.9897 ± 0.022 | 0.9971 ± 0.022 | 1.03 ± 0.022 | 1.072 ± 0.023 | – | – | 1.244 ± 0.027 | 1.332 ± 0.029

CCCOC(=O)CCCCC(=O)OCCC [dipropyl hexanedioate]
viscosity [mPa·s]
Details | 100 kPa | 1000 kPa | 5000 kPa | 10000 kPa | 15000 kPa | 20000 kPa | 30000 kPa | 40000 kPa
283.15 K | 6.153 ± 0.14 | 6.217 ± 0.14 | 6.536 ± 0.15 | 6.943 ± 0.16 | 7.36 ± 0.17 | 7.811 ± 0.18 | 8.759 ± 0.2 | 9.76 ± 0.22
293.14 K | – | 4.65 ± 0.11 | – | – | – | – | – | –
293.15 K | 4.599 ± 0.11 | – | 4.87 ± 0.11 | 5.155 ± 0.12 | 5.456 ± 0.12 | 5.773 ± 0.13 | 6.429 ± 0.15 | 7.169 ± 0.16
303.15 K | 3.567 ± 0.082 | 3.604 ± 0.084 | 3.766 ± 0.086 | 3.983 ± 0.091 | 4.205 ± 0.096 | 4.434 ± 0.1 | 4.938 ± 0.11 | 5.457 ± 0.12
313.15 K | 2.854 ± 0.065 | 2.889 ± 0.067 | 3.014 ± 0.069 | 3.178 ± 0.073 | 3.347 ± 0.076 | 3.519 ± 0.08 | 3.899 ± 0.089 | 4.293 ± 0.098
323.14 K | – | – | – | 2.592 ± 0.059 | – | – | – | –
323.15 K | 2.34 ± 0.054 | 2.364 ± 0.055 | 2.464 ± 0.056 | – | 2.725 ± 0.062 | 2.867 ± 0.066 | 3.157 ± 0.072 | 3.475 ± 0.079
333.15 K | 1.954 ± 0.045 | 1.973 ± 0.046 | 2.058 ± 0.047 | 2.163 ± 0.05 | 2.275 ± 0.052 | 2.391 ± 0.055 | 2.624 ± 0.06 | 2.875 ± 0.066
343.15 K | 1.658 ± 0.038 | 1.673 ± 0.039 | 1.744 ± 0.04 | 1.835 ± 0.042 | 1.928 ± 0.044 | 2.019 ± 0.046 | 2.216 ± 0.051 | 2.42 ± 0.056
353.15 K | 1.426 ± 0.033 | 1.44 ± 0.034 | 1.5 ± 0.035 | 1.577 ± 0.036 | 1.654 ± 0.038 | 1.736 ± 0.04 | 1.9 ± 0.044 | 2.074 ± 0.048
363.15 K | 1.242 ± 0.029 | 1.253 ± 0.029 | 1.306 ± 0.03 | 1.371 ± 0.032 | 1.439 ± 0.033 | 1.508 ± 0.035 | 1.649 ± 0.038 | 1.798 ± 0.041
